Reference: publication PMC2746568 (Journal of medicinal chemistry, 2009)
Entries after “also recorded” stand apart in the source; their conditions may differ. One block for each compound: values may come before it.

Columns and labels:
[1] = Mouse pharmacokinetics after oral dosing; assay type: in vivo, mice; conditions: for adverse reactions in plasma exposure study: single and repeat dosing; for plasma levels reached after single oral dose: uninfected mice
[2] = test system: P. berghei; experiment: P. berghei mouse in vivo efficacy testing; parameters: species or system Plasmodium berghei in mice; conditions: for ill effects from compound administration: oral 100 mg/kg/dose every 4 h × 10, then every 6 h × 6; for impact on parasite blood levels in P. berghei mouse model: oral 100 mg/kg/dose every 4 hours × 10 doses, then every 6 hours × 6 doses
[3] = in vitro; conditions: human, microsomes
[4] = test system: Pf 3D7 cells; conditions: read-out: EC50 against P. falciparum in whole cell assays; cited from earlier work
[5] = In vitro human microsomal metabolism; conditions: for Predicted EH (hepatic extraction ratio): estimated from measured rate of degradation in vitro; for Predicted EH (hepatic extraction ratio) / microsomal CLint at 1 µM: human; for microsomal CLint at 1 µM: pooled human liver microsomes; for Putative metabolites: human liver microsomes, LC/MS
[6] = molecular target: PbDHODH (Plasmodium berghei, UniProt A0A509AEH5); experiment: PbDHODH steady-state inhibition assay; assay type: biochemical; conditions: PbDHODH vs PfDHODH
[7] = molecular target: PfDHODH (Plasmodium falciparum, UniProt Q08210); conditions: unsubstituted phenyl; cited from earlier work
Chain of PfDHODH (Q08210 158-569): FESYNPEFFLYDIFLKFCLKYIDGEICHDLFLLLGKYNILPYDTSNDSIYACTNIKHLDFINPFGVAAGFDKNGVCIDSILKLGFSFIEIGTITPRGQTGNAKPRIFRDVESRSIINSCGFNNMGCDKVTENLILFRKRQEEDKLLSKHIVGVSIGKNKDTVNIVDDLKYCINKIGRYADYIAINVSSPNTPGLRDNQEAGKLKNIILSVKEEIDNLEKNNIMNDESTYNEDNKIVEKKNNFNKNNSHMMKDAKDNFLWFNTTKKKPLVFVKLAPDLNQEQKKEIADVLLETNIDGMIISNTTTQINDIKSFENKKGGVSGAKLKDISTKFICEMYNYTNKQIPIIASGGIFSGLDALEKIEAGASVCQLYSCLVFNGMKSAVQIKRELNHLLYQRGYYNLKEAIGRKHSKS

Predicted EH (hepatic extraction ratio) [5]: 0.50
microsomal CLint at 1 µM [5]: 18 µL/min/mg
SMILES: Cc1cc(Nc2cccc(F)c2)n2ncnc2n1 [Compound 13, (3-Fluoro-phenyl)-(5-methyl-[1,2,4]triazolo[1,5-a]pyrimidin-7-yl)-amine]

microsomal CLint [3]: 38 µL/min/mg
SMILES: Cc1cc(Nc2cccc(Cl)c2)n2ncnc2n1 [Compound 14, (3-Chloro-phenyl)-(5-methyl-[1,2,4]triazolo[1,5-a]pyrimidin-7-yl)-amine]

Predicted EH (hepatic extraction ratio) [5]: 0.64
microsomal CLint at 1 µM [5]: 31 µL/min/mg
SMILES: Cc1cc(Nc2ccc(F)c(C)c2)n2ncnc2n1 [Compound 40, (4-Fluoro-3-methyl-phenyl)-(5-methyl-[1,2,4]triazolo[1,5-a]pyrimidin-7-yl)-amine]

Predicted EH (hepatic extraction ratio) [5]: 0.43
microsomal CLint at 1 µM [5]: 14 µL/min/mg
SMILES: Cc1cc(Nc2ccc(Br)c(C(F)(F)F)c2)n2ncnc2n1 [Compound 42, (4-Bromo-3-trifluoromethyl-phenyl)-(5-methyl-[1,2,4]triazolo[1,5-a]pyrimidin-7-yl)-amine]

More lines, now with the values behind:

SMILES: Cc1cc(Nc2ccc3ccccc3c2)n2ncnc2n1 [Compound 2, (5-methyl-[1,2,4]triazolo[1,5-a]pyrimidin-7-yl)-naphthalen-2-yl-amine]
plasma levels at 240 min on day 4 of repeat dosing ([1]; mice, 50 mg/kg oral 1x daily repeat dosing): nearly undetectable
adverse reactions in plasma exposure study ([1]; mice, 50 mg/kg oral): No adverse reactions
plasma levels reached after single oral dose ([1]; 50 mg/kg oral single dose): 2000 to 3000 nM
ill effects from compound administration ([2]; infected mice): no major ill effects
impact on parasite blood levels in P. berghei mouse model ([2]; 100 mg/kg): no activity; also recorded: neither compound had any impact
microsomal CLint [3]: 96 µL/min/mg
EC50 [4]: 80 nM

SMILES: Cc1cc(Nc2ccc3cc4ccccc4cc3c2)n2ncnc2n1 [Compound 3, (5-Methyl-[1,2,4]triazolo[1,5-a]pyrimidin-7-yl)-anthracen-2-yl-amine]
plasma concentrations after last dose of repeat dosing relative to single dose ([1]; mice, 50 mg/kg oral for 2 to 4 days): significantly reduced
plasma concentrations maintained over 240 min ([1]; mice, 50 mg/kg oral single dose): 1000 to 3000 nM
observed plasma levels ([1]; mice, 50 mg/kg oral, repeat dosing): ~ 1 µM
adverse reactions in plasma exposure study ([1]; mice, 50 mg/kg oral): No adverse reactions
plasma levels reached after single oral dose ([1]; 50 mg/kg oral single dose): 2000 to 3000 nM
ill effects from compound administration ([2]; infected mice): no major ill effects
impact on parasite blood levels in P. berghei mouse model [2]: neither compound had any impact
Predicted EH (hepatic extraction ratio) [5]: 0.70
microsomal CLint at 1 µM [5]: 37 µL/min/mg
IC50 fold higher for PbDHODH than for PfDHODH [6]: 66 fold

SMILES: Cc1cc(Nc2ccccc2)n2ncnc2n1 [Compound 4]
activity (in words) [7]: completely inactive

SMILES: Cc1cc(Nc2cccc(C(F)(F)F)c2)n2ncnc2n1 [Compound 16, (5-Methyl-[1,2,4]triazolo[1,5-a]pyrimidin-7-yl)-(3-trifluoromethyl-phenyl)-amine]
Predicted EH (hepatic extraction ratio) [5]: 0.62
microsomal CLint at 1 µM [5]: 29 µL/min/mg

SMILES: Cc1cc(Nc2ccc(C(F)(F)F)cc2)n2ncnc2n1 [Compound 21, (5-Methyl-[1,2,4]triazolo[1,5-a]pyrimidin-7-yl)-(4-trifluoromethyl-phenyl)-amine]
time plasma concentrations maintained above 1 µM (0.29 µg/mL) ([1]; mice, single oral dose 50 mg/kg): 16 h
adverse reactions after oral administration ([1]; mice, single oral dose 20 or 50 mg/kg): No adverse reactions
adverse reactions in efficacy study ([2]; infected mice, 50 mg/kg oral q.d. or b.i.d. for 4 days): No adverse reactions
microsomal CLint [3]: 7.5 µL/min/mg

SMILES: Cc1cc(Nc2ccc(Cl)c(C(F)(F)F)c2)n2ncnc2n1 [Compound 41, (4-Chloro-3-trifluoromethyl-phenyl)-(5-methyl-[1,2,4]triazolo[1,5-a]pyrimidin-7-yl)-amine]
Predicted EH (hepatic extraction ratio) [5]: 0.42
microsomal CLint at 1 µM [5]: 13 µL/min/mg

SMILES: Cc1cc(Nc2ccc(C#N)c(C(F)(F)F)c2)n2ncnc2n1 [Compound 45, 4-(5-Methyl-[1,2,4]triazolo[1,5-a]pyrimidin-7-ylamino)-2-trifluoromethyl-benzonitrile]
Putative metabolites [5]: no metabolites were detected; also recorded: None detected

SMILES: Cc1cc(Nc2ccc(C(F)(F)F)c(F)c2)n2ncnc2n1 [Compound 47, (3-Fluoro-4-trifluoromethyl-phenyl)-(5-methyl-[1,2,4]triazolo[1,5-a]pyrimidin-7-yl)-amine]
Putative metabolites [5]: no metabolites were detected; also recorded: None detected
